Reference: ChEMBL document CHEMBL4145459, “Synthesis of (3S,4S,5S)-trihydroxylpiperidine derivatives as enzyme stabilizers to improve therapeutic enzyme activity in Fabry patient cell lines” (Eur J Med Chem, 2018)
Calls of active or inactive are those of the source. No cut-off for these calls is given here.

Columns and labels:
[1] = biological target: T1, Alpha-galactosidase A (Homo sapiens) (UniProt P06280); experiment: Inhibition of human recombinant alpha-galactosidase A at 100 uM using 4-MU-alpha-d-galactopyranoside as substrate by fluorescence assay relative to control
T1 sequence (whole entry): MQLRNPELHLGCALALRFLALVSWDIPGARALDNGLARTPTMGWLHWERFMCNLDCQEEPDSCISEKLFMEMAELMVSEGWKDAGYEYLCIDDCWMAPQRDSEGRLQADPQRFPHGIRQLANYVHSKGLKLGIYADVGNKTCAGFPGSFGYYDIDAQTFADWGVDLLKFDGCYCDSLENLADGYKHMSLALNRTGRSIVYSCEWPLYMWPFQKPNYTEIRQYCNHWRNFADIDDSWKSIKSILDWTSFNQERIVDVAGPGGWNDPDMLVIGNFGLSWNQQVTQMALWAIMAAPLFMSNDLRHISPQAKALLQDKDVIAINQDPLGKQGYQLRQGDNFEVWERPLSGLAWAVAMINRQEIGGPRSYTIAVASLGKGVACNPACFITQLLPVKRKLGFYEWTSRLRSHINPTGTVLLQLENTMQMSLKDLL

[2] = biological target: T2, Alpha-glucosidase (Geobacillus stearothermophilus) (UniProt P94451); experiment: Inhibition of Bacillus stearothermophilus alpha-glucosidase at 100 uM using 4-MU-glycopyranoside as substrate by spectrophotometric analysis
T2 sequence (whole entry): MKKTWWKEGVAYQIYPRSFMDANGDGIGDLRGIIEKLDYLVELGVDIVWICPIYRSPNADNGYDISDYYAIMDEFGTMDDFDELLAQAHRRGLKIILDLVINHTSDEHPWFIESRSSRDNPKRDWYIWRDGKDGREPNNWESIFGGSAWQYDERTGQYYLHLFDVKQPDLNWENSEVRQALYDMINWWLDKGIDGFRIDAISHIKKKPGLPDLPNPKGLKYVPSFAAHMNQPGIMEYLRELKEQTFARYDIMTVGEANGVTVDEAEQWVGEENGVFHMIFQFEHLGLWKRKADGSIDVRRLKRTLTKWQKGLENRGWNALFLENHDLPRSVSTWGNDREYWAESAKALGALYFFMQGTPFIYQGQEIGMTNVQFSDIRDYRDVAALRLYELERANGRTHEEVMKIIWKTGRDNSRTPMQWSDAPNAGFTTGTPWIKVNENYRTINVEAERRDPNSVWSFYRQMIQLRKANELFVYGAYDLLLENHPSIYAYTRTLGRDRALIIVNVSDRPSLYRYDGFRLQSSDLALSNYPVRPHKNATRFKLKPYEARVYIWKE

[3] = biological target: Lysosomal alpha-glucosidase (Homo sapiens) (UniProt P10253); experiment: Inhibition of human recombinant acid alpha-glucosidase at 100 uM using 4-MU-glycopyranoside as substrate by spectrophotometric analysis
[4] = biological target: T3, Lysosomal acid glucosylceramidase (Homo sapiens) (UniProt P04062); experiment: Inhibition of human recombinant acid beta-glucosidase at 100 uM using 4-MU-glycopyranoside as substrate by spectrophotometric analysis
T3 sequence (whole entry): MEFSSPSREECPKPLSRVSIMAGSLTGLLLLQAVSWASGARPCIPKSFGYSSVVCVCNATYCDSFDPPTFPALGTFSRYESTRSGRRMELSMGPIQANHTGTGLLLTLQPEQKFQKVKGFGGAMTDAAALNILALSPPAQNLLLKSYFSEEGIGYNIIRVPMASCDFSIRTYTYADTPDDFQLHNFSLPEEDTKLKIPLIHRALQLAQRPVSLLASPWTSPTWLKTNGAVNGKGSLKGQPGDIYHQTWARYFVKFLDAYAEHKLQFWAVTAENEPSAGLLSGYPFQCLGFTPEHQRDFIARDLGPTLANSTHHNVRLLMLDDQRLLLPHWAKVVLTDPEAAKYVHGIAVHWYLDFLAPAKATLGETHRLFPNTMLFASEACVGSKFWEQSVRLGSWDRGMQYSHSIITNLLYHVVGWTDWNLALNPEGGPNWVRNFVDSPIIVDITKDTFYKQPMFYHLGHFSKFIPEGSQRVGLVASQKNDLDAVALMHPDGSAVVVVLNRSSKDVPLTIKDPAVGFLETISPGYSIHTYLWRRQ

[5] = biological target: Alpha-galactosidase (Coffea arabica) (UniProt Q42656); experiment: Inhibition of green coffee beans alpha-galactosidase at 100 uM using 4-MU-glycopyranoside as substrate by spectrophotometric analysis relative to control
[6] = biological target: T4, Beta-galactosidase (Homo sapiens) (UniProt P16278); experiment: Inhibition of human lymphocyte beta-galactosidase at 100 uM using 4-MU-glycopyranoside as substrate by spectrophotometric analysis
T4 sequence (whole entry): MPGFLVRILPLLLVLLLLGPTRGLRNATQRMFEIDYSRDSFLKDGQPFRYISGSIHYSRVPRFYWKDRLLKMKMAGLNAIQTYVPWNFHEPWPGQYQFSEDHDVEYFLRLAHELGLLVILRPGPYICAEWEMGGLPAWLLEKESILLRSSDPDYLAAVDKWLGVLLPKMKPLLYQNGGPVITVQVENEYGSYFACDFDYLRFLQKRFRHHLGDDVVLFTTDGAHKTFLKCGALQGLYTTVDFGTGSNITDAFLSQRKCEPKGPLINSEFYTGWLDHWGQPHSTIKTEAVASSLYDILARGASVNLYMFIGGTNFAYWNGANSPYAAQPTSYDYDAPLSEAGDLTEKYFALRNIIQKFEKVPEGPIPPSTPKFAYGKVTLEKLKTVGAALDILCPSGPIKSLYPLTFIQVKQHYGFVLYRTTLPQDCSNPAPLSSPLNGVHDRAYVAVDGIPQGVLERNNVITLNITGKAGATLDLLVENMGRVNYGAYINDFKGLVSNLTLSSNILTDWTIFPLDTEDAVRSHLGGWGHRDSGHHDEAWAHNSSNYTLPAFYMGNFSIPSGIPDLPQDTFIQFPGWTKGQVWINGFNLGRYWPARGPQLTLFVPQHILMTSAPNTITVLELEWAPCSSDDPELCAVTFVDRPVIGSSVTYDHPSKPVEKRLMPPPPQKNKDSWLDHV

[7] = biological target: T5, Lysosomal alpha-mannosidase (Homo sapiens) (UniProt O00754); experiment: Inhibition human recombinant acid alpha-mannosidase at 100 uM using p-nitrophenyl-glycopyranoside as substrate by spectrophotometric analysis
T5 sequence (whole entry): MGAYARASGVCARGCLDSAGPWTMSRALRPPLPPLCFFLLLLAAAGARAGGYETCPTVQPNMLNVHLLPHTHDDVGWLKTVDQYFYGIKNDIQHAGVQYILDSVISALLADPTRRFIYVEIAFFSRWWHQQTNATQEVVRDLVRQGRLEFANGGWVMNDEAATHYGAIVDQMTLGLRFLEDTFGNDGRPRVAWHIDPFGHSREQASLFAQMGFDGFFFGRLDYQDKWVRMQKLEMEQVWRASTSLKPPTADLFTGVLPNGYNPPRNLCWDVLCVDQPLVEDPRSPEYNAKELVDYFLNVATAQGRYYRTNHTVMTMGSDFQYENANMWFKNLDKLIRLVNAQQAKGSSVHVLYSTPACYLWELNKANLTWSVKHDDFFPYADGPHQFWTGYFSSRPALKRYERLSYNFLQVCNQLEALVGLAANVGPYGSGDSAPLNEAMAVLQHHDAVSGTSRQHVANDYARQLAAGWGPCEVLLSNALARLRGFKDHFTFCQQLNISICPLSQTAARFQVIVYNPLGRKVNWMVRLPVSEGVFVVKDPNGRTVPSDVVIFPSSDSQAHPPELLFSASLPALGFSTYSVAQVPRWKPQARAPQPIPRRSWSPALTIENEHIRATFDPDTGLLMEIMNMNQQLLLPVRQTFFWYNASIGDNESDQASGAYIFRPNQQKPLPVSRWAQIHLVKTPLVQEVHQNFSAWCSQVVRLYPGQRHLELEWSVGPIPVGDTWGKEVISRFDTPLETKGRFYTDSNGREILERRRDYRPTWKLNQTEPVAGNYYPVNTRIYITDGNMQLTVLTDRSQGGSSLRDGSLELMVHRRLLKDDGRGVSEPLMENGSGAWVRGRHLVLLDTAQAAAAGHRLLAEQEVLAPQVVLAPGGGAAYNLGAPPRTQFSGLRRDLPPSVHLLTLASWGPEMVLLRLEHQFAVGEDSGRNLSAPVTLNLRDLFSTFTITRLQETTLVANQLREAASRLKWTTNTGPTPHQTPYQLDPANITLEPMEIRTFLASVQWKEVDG

Lymphocyte = experiment: Cytotoxicity against human lymphocytes at 100 uM after 48 to 72 hrs by AlamarBlue assay; type: cell-based

Alpha-galactosidase (Coffea arabica), sequence (Q42656 16-378 limits assumed): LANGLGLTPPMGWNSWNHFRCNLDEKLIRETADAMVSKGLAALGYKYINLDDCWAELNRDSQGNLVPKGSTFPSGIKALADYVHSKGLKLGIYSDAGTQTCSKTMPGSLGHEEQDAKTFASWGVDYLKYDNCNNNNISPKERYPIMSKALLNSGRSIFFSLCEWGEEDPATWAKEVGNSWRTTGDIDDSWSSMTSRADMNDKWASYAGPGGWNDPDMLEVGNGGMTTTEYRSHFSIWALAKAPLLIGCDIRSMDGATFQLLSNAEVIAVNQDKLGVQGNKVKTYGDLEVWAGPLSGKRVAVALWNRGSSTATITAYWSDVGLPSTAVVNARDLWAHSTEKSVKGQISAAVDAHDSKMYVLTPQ

inhibition [1]: 99%
inhibition [2]: inactive
inhibition [3]: inactive
inhibition [4]: inactive
inhibition [5]: 57%
inhibition [6]: inactive
inhibition [7]: inactive
SMILES: COc1ccc(OC)c(/C=C/C(=O)NC[C@H]2NC[C@H](O)[C@@H](O)[C@H]2O)c1
Activity (Lymphocyte): Non-Toxic
